The subject of assay [1] is MDA-MB-468. As to the kind of experiment: Induction of apoptosis in human MDA-MB-468 cells assessed as up-regulation of cleaved caspase 3 at 2.5 to 5 uM measured after 24 hrs by Western blotting analysis. It counts as functional, cell-based. The following applies: dose 2.5-5 µM.
The test system of assay [2] is MDA-MB-231. The assay can be described thus: Induction of apoptosis in human MDA-MB-231 cells assessed as up-regulation of cleaved Bax at 2.5 to 5 uM measured after 24 hrs by Western blotting analysis. In kind it is functional, cell-based. The conditions noted are these: dose 2.5-5 µM. (Immunoblotting shows a protein as a band on a membrane.)
Assay [3] relates to MDA-MB-468. The assay can be described thus: Decrease in STAT5 expression level in human MDA-MB-468 cell nucleus at 1.25 to 5 uM measured after 24 hrs by Western blot analysis. The conditions noted are these: dose 1.25-5 µM. It counts as functional, cell-based.
Assay [4] concerns MDA-MB-231. As to the kind of experiment: Anti-invasion ability in human MDA-MB-231 cells assessed as reduction in cell invasion and migration ability rate incubated for 24 hrs by Boyden chamber transwell assay. It counts as functional, cell-based. The conditions noted are these: dose 1.25-5 µM.
Assay [5] concerns MDA-MB-468. As to the kind of experiment: Induction of apoptosis in human MDA-MB-468 cells assessed as up-regulation of cleaved caspase 9 at 2.5 to 5 uM measured after 24 hrs by Western blotting analysis. It counts as functional, cell-based. The following applies: dose 2.5-5 µM.
Assay [6] concerns MDA-MB-231. The assay can be described thus: In vivo antitumor activity against human MDA-MB-231 cells xenografted in Female BALB/c-nude assessed as increase in TUNEL positive cells in tumor tissue at 15 to 30 mg/kg, ip once daily for 21 consecutive days by TUNEL cell apoptosis assay. It counts as functional, organism-based. The following applies: dose 15-30 mg/kg, time 21.0 day. In general terms: Xenograft models place foreign cells or tissue in a host animal.

Assay [7] relates to MDA-MB-231. As to the kind of experiment: Induction of apoptosis in human MDA-MB-231 cells assessed as up-regulation of cleaved caspase 9 at 2.5 to 5 uM measured after 24 hrs by Western blotting analysis. It counts as functional, cell-based. The following applies: dose 2.5-5 µM.
Assay [8] deals with MDA-MB-231. As to the kind of experiment: Induction of apoptosis in human MDA-MB-231 cells assessed as up-regulation of cleaved caspase 3 at 2.5 to 5 uM measured after 24 hrs by Western blotting analysis. It counts as functional, cell-based. The following applies: dose 2.5-5 µM.
Assay [9] has as its system MDA-MB-231. The assay can be described thus: In vivo antitumor activity against human MDA-MB-231 cells xenografted in Female BALB/c-nude assessed as down-regulation of p-STAT3 expression in tumor tissue at 15 to 30 mg/kg, ip once daily for 21 consecutive days by […]. It counts as functional, organism-based. The following applies: dose 15-30 mg/kg, time 21.0 day.

The test system of assay [10] is MDA-MB-468. As to the kind of experiment: Induction of apoptosis in human MDA-MB-468 cells assessed as up-regulation of cleaved Bax at 2.5 to 5 uM measured after 24 hrs by Western blotting analysis. In kind it is functional, cell-based. The following applies: dose 2.5-5 µM.
The test system of assay [11] is MDA-MB-231. The assay can be described thus: Induction of apoptosis in human MDA-MB-231 cells assessed as down-regulation of cleaved Bcl-2 at 2.5 to 5 uM measured after 24 hrs by Western blotting analysis. In kind it is functional, cell-based. The conditions noted are these: dose 2.5-5 µM.
The target in assay [12] is T1, Signal transducer and activator of transcription 1-alpha/beta (Homo sapiens) (UniProt P42224).
T1 sequence (whole entry): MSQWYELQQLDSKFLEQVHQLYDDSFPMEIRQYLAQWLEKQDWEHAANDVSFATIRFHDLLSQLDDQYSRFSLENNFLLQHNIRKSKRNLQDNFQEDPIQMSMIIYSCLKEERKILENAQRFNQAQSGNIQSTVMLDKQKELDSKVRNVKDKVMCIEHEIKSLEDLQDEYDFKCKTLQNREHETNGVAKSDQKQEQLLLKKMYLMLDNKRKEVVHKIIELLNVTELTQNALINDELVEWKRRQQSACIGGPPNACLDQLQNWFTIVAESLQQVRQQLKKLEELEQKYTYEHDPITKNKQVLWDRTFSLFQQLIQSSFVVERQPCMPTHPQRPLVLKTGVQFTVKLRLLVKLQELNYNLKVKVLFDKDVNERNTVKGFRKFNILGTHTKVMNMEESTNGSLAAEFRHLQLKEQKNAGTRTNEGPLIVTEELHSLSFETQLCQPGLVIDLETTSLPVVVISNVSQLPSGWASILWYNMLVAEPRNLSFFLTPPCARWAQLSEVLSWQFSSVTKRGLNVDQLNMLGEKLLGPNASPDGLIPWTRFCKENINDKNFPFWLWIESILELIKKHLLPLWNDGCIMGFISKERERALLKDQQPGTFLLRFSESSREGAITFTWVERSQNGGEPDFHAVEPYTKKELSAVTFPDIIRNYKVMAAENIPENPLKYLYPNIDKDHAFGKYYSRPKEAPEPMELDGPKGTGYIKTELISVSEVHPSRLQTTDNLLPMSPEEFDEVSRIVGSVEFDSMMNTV
As to the kind of experiment: Inhibition of STAT1 activation in human MDA-MB-231 cell assessed as decrease in phosphorylated STAT1 (Tyr701) level at 1.25 to 5 uM measured after 24 hrs by Western blot analysis. It counts as cell-based. The following applies: dose 1.25-5 µM.

The target in assay [13] is T2, Signal transducer and activator of transcription 5A (Homo sapiens) (UniProt P42229).
T2 sequence (whole entry): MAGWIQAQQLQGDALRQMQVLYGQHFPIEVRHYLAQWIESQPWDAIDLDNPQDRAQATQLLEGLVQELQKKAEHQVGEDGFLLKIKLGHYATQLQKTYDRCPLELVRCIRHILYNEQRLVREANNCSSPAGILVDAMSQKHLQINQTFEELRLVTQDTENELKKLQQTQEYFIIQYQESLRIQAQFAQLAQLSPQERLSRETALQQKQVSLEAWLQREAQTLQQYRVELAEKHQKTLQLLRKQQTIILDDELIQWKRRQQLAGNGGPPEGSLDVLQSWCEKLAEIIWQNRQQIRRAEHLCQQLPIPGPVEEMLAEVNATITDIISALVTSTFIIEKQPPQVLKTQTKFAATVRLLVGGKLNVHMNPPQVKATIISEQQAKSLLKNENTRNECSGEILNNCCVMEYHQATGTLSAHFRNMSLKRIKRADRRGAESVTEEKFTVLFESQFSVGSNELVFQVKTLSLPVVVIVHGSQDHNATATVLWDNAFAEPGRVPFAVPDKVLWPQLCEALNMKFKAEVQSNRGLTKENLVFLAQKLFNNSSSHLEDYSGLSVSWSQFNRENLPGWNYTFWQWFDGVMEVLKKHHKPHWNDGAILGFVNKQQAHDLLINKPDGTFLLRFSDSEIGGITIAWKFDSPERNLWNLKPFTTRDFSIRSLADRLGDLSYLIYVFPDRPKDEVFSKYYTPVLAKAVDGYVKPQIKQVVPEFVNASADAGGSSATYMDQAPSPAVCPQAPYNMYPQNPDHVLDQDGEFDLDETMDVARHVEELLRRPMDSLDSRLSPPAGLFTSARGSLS
As to the kind of experiment: Inhibition of STAT5 activation in human MDA-MB-231 cell assessed as decrease in […] level at 1.25 to 5 uM measured after 24 hrs by Western blot analysis. It counts as cell-based. The following applies: dose 1.25-5 µM.

The test system of assay [14] is MDA-MB-231. As to the kind of experiment: Decrease in STAT5 expression level in human MDA-MB-231 cell cytoplasm at 1.25 to 5 uM measured after 24 hrs by Western blot analysis. In kind it is functional, cell-based. The following applies: dose 1.25-5 µM.
The subject of assay [15] is MDA-MB-231. As to the kind of experiment: In vivo antitumor activity against human MDA-MB-231 cells xenografted in Female BALB/c-nude assessed as up-regulation of C-Caspase 3 expression in tumor tissue at 15 to 30 mg/kg, ip once daily for 21 consecutive days by […]. The conditions noted are these: dose 15-30 mg/kg, time 21.0 day. In kind it is functional, organism-based.

Assay [16] relates to MDA-MB-231. The assay can be described thus: Inhibition of cell migration in human MDA-MB-231 cells assessed as decrease in wound closure rate at 5 uM incubated for 6 to 24 hrs by wound healing assay. The following applies: time 6-24 hrs. In kind it is functional, cell-based.
The subject of assay [17] is MDA-MB-468. The assay can be described thus: Decrease in STAT5 expression level in human MDA-MB-468 cell cytoplasm at 1.25 to 5 uM measured after 24 hrs by Western blot analysis. It counts as functional, cell-based. The conditions noted are these: dose 1.25-5 µM.
The subject of assay [18] is MDA-MB-231. The assay can be described thus: Inhibition of colony formation in human MDA-MB-231 cells assessed as reduction in colony number and size at 1.25 to 5 uM by plate colony formation assay. In kind it is functional, cell-based. The following applies: dose 1.25-5 µM.
For assay [19], the system named is MDA-MB-468. The assay can be described thus: Induction of apoptosis in human MDA-MB-468 cells assessed as down-regulation of cleaved Bcl-2 at 2.5 to 5 uM measured after 24 hrs by Western blotting analysis. In kind it is functional, cell-based. The conditions noted are these: dose 2.5-5 µM.
The test system of assay [20] is MDA-MB-231. As to the kind of experiment: Induction of apoptosis in human MDA-MB-231 cells assessed as down-regulation of cleaved […] at 2.5 to 5 uM measured after 24 hrs by Western blotting analysis. In kind it is functional, cell-based. The following applies: dose 2.5-5 µM.
The subject of assay [21] is MDA-MB-468. The assay can be described thus: Induction of apoptosis in human MDA-MB-468 cells assessed as […] at 2.5 to 5 uM measured after 24 hrs by Western blotting analysis. The conditions noted are these: dose 2.5-5 µM. In kind it is functional, cell-based.
The subject of assay [22] is MDA-MB-231. The assay can be described thus: Decrease in STAT5 expression level in human MDA-MB-231 cell nucleus at 1.25 to 5 uM measured after 24 hrs by Western blot analysis. In kind it is functional, cell-based. The following applies: dose 1.25-5 µM.
Assay [23] deals with MDA-MB-231. The assay can be described thus: Induction of apoptosis in human MDA-MB-231 cells assessed as early apoptotic cells at 10 uM measured after 24 hrs incubation by the annexin V/propidium iodide (PI) double staining assay (reference value: 2.37%). It counts as functional.
In assay [24] the test system is MDA-MB-231. The assay can be described thus: Induction of apoptosis in human MDA-MB-231 cells assessed as late apoptotic cells at 10 uM measured after 24 hrs incubation by the annexin V/propidium iodide (PI) double staining assay (reference value: 3.08%). In kind it is functional.
The test system of assay [25] is MDA-MB-468. As to the kind of experiment: Induction of apoptosis in human MDA-MB-468 cells assessed as early apoptotic cells at 10 uM measured after 24 hrs incubation by the annexin V/propidium iodide (PI) double staining assay (reference value: 2.36%). It counts as functional.
Assay [26] has as its system MDA-MB-468. As to the kind of experiment: Induction of apoptosis in human MDA-MB-468 cells assessed as late apoptotic cells at 10 uM measured after 24 hrs incubation by the annexin V/propidium iodide (PI) double staining assay (reference value: 4.33%). It counts as functional.

Structures are written as SMILES. The source made the active and inactive calls. No cut-off for these calls is given here. Peptide text beside a SMILES is read from it. * marks the point of attachment. Cbz = O=C(OCc1ccccc1)*; CH2F = FC*

For `CC(C)C[C@@H](CO)N1CCc2c(oc3c2C(=O)C(=O)c2ccccc2-3)C1`, the outcome with MDA-MB-468 [1], in the assay on MDA-MB-231 [2], in the assay with MDA-MB-468 [3], in the assay with MDA-MB-468 [5], with MDA-MB-231 [6] and in the assay with MDA-MB-231 [7] was Active. The outcome in the assay with MDA-MB-231 [8], in the assay with MDA-MB-231 [9], in the assay on MDA-MB-468 [10], in the assay with MDA-MB-231 [11], in the assay on MDA-MB-231 [15] and in the assay on MDA-MB-468 [19] was Active. Besides, the result with MDA-MB-231 [20], with MDA-MB-468 [21] and in the assay on MDA-MB-231 [22] was Active. The Activity result with MDA-MB-231 [4] is “Dose-Dependent Effect”. The inhibition result in assay [12] and in [13] was “inactive” throughout. Also, the outcome in the assay with MDA-MB-231 [14] and in the assay with MDA-MB-468 [17] was inactive. The inhibition entry in the assay on MDA-MB-231 [16] and with MDA-MB-231 [18] was “Active” throughout.
On to `CC(C)[C@H](NC(=O)OCc1ccccc1)C(=O)N[C@@H](C)C(=O)N[C@@H](CC(=O)O)C(=O)CF` (Cbz-Val-Ala-Asp-CH2F), for which the Activity is reported as 2.76% in the assay on MDA-MB-231 [23], 2.63% in the assay on MDA-MB-231 [24], 5.02% with MDA-MB-468 [25] and 2.19% in the assay on MDA-MB-468 [26].

The values are drawn from ChEMBL document CHEMBL5614424, “Natural Product-Inspired Discovery of Naphthoquinone-Furo-Piperidine Derivatives as Novel STAT3 Inhibitors for the Treatment of Triple-Negative Breast Cancer” (J Med Chem, 2024).
